Series [1] has as its system human liver TPMT. Particulars: read-out: Apparent Km value for 6-MP; cited from earlier work.
For series [2], the target named is T1, human kidney TPMT (Homo sapiens, UniProt P51580).
T1 construct: to assay the enzyme in human kidney preparations; host or cells: human kidney
T1 sequence (P51580 1-245): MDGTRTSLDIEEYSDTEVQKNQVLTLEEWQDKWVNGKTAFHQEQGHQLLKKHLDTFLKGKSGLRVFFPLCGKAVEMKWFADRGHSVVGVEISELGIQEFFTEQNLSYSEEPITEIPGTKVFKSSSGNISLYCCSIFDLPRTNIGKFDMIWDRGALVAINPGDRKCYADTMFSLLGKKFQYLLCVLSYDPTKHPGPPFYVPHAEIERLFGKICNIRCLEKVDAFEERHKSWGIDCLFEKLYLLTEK
Particulars: cited from earlier work.

Series [3] concerns patients with genetically low or undetectable RBC TPMT activity. Particulars: patients lacking or with low TPMT activity; cited from earlier work.
In a further series the test system is TPMT. Particulars: cited from earlier work.
For series [4], the target named is T2, T84 cell TPMT (Homo sapiens, UniProt P51580).
T2 construct: Cytosol from T84 cells did contain TPMT enzymatic activity; host or cells: T84 human colon carcinoma cells
T2 sequence (P51580 1-245): T1 sequence (P51580 1-245)
As to the kind of experiment: DMHBA inhibition of TPMT activity, T84 cells. The format is biochemical. Particulars: DMHBA 0.01 μM to 10 mM. The method, then: (§1) The University of Wisconsin Genetics Computer Group software package was used to analyze sequence information and to make comparisons between the sequence of the TPMT cDNA clone and the sequences of other cloned proteins. The GenBank Genetics Sequence Data Bank and the EMBL Nucleotide Sequence Database were used to search for nucleotide homologies, whereas the Swiss-Prot Protein Sequence Database was used to search for protein structural homologies. IC50 values were calculated with the GraphPAD Inplot program (GraphPAD, San Diego, Calif.).
(§2) TPMT activity in renal tissue was measured by the method of R. M. Weinshilboum et al., in Clin. Chim. Acta, 85, 323 (1978) as modified by L. C. Woodson et al., Biochem. Pharmacol., 32, 819 (1983) to assay the enzyme in human kidney preparations. […] Ado-Met as the methyl donor. Assay conditions for the measurement of TPMT in T84 human colon carcinoma cells and in COS-1 cells were identical with those used to measure the enzyme activity in human renal tissue. One unit of TPMT activity represented the formation of 1 nmol of 6-MMP per hr of incubation at 37° C.
T84 human colon carcinoma cells (American Type Culture Collection, Rockville, Md.) were grown to confluence in an equal volume mixture of Dulbecco's modified Eagle's medium (DMEM) and Ham's F12 media with 5% fetal calf serum. […]

For series [5], the target named is T1, human kidney TPMT. Briefly: DMHBA inhibition of TPMT activity, human kidney. The format is biochemical. The following applies: DMHBA 0.01 μM to 10 mM. The method, then: as §1
Renal tissue was obtained either during autopsy or from patients undergoing clinically indicated nephrectomies. Hepatic tissue was obtained from patients who underwent clinically indicated partial hepatectomies for the removal of primary or metastatic hepatic tumors. All tissue was obtained under guidelines approved by the Mayo Clinic Institutional Review Board. Macroscopically normal tissue was stored at -80° C., conditions under which TPMT activity is stable (C. L. Szumlanski et al., Pharmacogenetics, 2, 148 (1992); J. A. Van Loon et al., Drug Met. Disposit., 18, 632 (1990)). […]
TPMT activity in renal tissue was measured by the method of R. M. Weinshilboum et al., in Clin. Chim. […]

The target of series [6] is T3, TPMT expressed in COS-1 cells transfected with T84 cell TPMT cDNA (Homo sapiens, UniProt P51580).
T3 sequence (P51580 1-245): T1 sequence (P51580 1-245)
As to the kind of experiment: DMHBA inhibition of TPMT activity expressed in transfected COS-1 cells. The format is biochemical. Particulars: COS-1 cells transfected with cDNA clone; FIG. 6. As to the method: as §1, §2
Simian COS-1 cells were then plated in 100-mm dishes at a density of 1.5-1.8×10^6 cells/dish in DMEM with 10% fetal calf serum, and were allowed to grow overnight. Three dishes of cells were used for each transfection. […]

Series [7] relates to human liver TPMT. Particulars: cited from earlier work.
For series [8], the target named is T1, human kidney TPMT. The following applies: cited from earlier work. The source holds these as a separate data set.
The target in series [9] is T2, T84 cell TPMT. Briefly: TPMT biochemical characteristics: pH optimum and apparent Km, T84 cells. The following applies: 150 mM potassium phosphate buffer, seven pH values 5.5 to 8.5. The method, then:
TPMT activity in renal tissue was measured by the method of R. M. Weinshilboum et al., in Clin. Chim. Acta, 85, 323 (1978) as modified by L. C. Woodson et al., Biochem. Pharmacol., 32, 819 (1983) to assay the enzyme in human kidney preparations. […] Assay conditions for the measurement of TPMT in T84 human colon carcinoma cells and in COS-1 cells were identical with those used to measure the enzyme activity in human renal tissue. One unit of TPMT activity represented the formation of 1 nmol of 6-MMP per hr of incubation at 37° C.

For series [10] the following is noted: tissue stored at -80° C.; cited from earlier work.
Substrate in series [11]: C[S+](CC[C@H](N)C(=O)O)C[C@H]1O[C@@H](n2cnc3c(N)ncnc32)[C@H](O)[C@@H]1O
Briefly: purified protein, by the assay type. The following applies: other: T84 cells; 3.4 mM 6-MP, Ado-Met 0.78 to 25 μM; 37.0 °C.

Substrate in series [12]: Sc1ncnc2nc[nH]c12
Briefly: purified protein, by the assay type. The following applies: other: T84 cells; 25 μM Ado-Met, 6-MP 0.11 to 6.8 mM; 37.0 °C.

Entries after “also recorded” stand apart in the source; their conditions may differ.

The values that follow come from US5470737A, “Stably-transformed cells expressing human thiopurine methyltransferase” (priority 1994, dated 1995).

As to `Sc1ncnc2nc[nH]c12` [6-MP, 6-mercaptopurine], the Km (usually the concentration of substrate that gives half-maximal velocity) is 580 µM in the series on human liver TPMT [1] and 300 µM on human kidney TPMT [2] (read-out: Apparent Km value for 6-MP). In addition, the “risk of myelosuppression (in words)” value in series [3] was “even more at risk for the occurrence of severe myelosuppression; also recorded: greatly increased risk for the development of life-threatening thiopurine-induced myelosuppression”. Also, the “substrate for TPMT (in words)” value with TPMT is recorded as “substrates for TPMT”.
For `COc1cc(C(=O)O)cc(O)c1OC` [DMHBA, 3,4-dimethoxy-5-hydroxybenzoic acid], the IC50 (in general, the midpoint of a concentration-inhibition curve) was 6.6 µM on T84 cell TPMT [4], 7.8 µM against human kidney TPMT [5] and 8.5 µM with human liver TPMT [7] (read-out: DMHBA IC50). Further, the “IC50 value, TPMT activity expressed in COS-1 cells (in words)” value in [6] was “nearly identical to that of the TPMT present in T84 cells”. Besides, in the series on human liver TPMT [7], the “inhibition of human liver TPMT activity (in words)” value was “known to be inhibited”. The “inhibition of human kidney TPMT activity (in words)” value on human kidney TPMT [8] is “known to be inhibited”.

B1: T84 cell TPMT (Homo sapiens) (protein)
chain: T1 sequence (P51580 1-245)
As to B1, the “pH Optimum” value with T84 cell TPMT [9] and in the series with human kidney TPMT [2] was 6.5 throughout. For the same molecule, the “stability of TPMT activity (in words)” value in [10] is listed as “stable”. Moreover, the Km in series [11] was 5.1 µM; in series [12], 710 µM.
